Experimental data taken from patent US9670194B2 (Calitor Sciences, LLC, priority 2013, dated 2017).
Where two headings read alike, the source gives them in different places.

Legend:
[1] = Pharmacokinetics after intravenous and oral administration in rats; type: in vivo, rat; details: for clearance (CL) / AUC(0-t) / half-life / Vd: iv dosing; for bioavailability / AUC(0-t) / half-life / Vd: rat, plasma; for bioavailability: oral dose generally 5 or 10 mg/kg; for Vd: read-out: Vss
PI3K (p110δ/p85α) (h) = PI3K (p110δ/p85α) (h) (Homo sapiens (Human), UniProt O00329); test: PI3K (p110δ/p85α) (h) non-radioactive HTRF kinase assay; type: biochemical
Sequence of PI3K (p110δ/p85α) (h) (O00329 whole entry): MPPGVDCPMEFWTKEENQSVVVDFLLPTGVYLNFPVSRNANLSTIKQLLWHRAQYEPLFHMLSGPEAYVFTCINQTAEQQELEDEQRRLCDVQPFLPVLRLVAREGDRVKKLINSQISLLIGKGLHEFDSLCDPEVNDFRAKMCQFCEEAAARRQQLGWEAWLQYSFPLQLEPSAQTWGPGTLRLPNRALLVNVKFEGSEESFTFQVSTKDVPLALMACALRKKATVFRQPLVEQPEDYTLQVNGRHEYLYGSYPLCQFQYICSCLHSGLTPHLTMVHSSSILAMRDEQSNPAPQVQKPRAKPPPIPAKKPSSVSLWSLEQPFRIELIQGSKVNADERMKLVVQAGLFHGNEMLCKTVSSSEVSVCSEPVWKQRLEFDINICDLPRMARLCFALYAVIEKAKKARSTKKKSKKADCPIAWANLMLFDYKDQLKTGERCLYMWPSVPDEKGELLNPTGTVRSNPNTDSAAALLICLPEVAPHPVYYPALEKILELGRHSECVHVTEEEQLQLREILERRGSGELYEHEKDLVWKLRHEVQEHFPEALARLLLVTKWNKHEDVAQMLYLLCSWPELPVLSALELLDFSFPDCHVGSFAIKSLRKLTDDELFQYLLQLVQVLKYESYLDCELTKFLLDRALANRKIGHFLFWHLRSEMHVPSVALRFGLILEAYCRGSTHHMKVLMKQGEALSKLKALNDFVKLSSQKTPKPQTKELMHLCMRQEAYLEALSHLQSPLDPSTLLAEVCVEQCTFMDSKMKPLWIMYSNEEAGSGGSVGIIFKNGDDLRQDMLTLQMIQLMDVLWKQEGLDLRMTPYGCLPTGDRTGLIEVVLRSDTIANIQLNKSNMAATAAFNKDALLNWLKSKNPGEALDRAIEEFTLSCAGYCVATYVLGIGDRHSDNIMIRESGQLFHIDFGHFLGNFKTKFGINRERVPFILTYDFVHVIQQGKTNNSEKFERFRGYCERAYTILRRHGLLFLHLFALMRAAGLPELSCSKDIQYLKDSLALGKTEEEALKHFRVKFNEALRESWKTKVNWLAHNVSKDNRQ
Sequence of PI3K (p110δ/p85α) (h) (P27986 whole entry partner): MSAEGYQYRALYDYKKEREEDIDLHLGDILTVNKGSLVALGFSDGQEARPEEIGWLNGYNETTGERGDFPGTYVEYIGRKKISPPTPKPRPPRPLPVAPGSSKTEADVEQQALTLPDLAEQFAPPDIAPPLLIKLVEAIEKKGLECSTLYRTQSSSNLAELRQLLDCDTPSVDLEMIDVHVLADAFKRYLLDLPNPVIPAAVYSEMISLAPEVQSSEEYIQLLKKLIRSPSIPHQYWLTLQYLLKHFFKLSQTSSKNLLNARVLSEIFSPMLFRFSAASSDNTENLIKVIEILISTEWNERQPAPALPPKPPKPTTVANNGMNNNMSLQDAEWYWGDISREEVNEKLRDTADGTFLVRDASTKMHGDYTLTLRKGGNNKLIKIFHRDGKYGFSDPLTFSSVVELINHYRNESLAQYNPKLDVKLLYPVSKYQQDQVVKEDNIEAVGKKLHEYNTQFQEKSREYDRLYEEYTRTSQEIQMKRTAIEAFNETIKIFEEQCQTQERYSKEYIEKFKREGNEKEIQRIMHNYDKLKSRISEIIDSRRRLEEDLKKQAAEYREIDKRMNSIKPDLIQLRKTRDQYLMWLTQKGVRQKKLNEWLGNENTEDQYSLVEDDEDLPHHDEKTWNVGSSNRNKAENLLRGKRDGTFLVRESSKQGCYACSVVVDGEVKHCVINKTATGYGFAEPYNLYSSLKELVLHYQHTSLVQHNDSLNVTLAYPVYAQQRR

[2] = Compound stability in human liver microsomes; type: in vitro ADME; details: for half-life at 5 μM: human liver microsomes 0.5 mg protein/mL, compound 5 μM, NADPH 1.0 mM, 37° C.; for CLint scaled at 5 μM: human liver microsomes, in vivo CLint extrapolated
[3] = Compound stability in rat liver microsomes; type: in vitro ADME; details: pH 7.4; for half-life at 5 μM: rat liver microsomes 0.5 mg protein/mL, compound 5 μM, NADPH 1.0 mM, 37° C.; for CLint scaled at 5 μM: rat liver microsomes, in vivo CLint extrapolated

Row | clearance (CL) ([1]; dose 1 mg/kg) [L/h/kg] | bioavailability ([1]; iv dose 1 mg/kg) [%] | AUC(0-t) ([1]; dose 1 mg/kg) [ng·h/mL] | half-life ([1]; dose 1 mg/kg) [min] | Vd ([1]; dose 1 mg/kg) [L/kg] | IC50 (PI3K (p110δ/p85α) (h)) [nM] | half-life at 5 μM [2] [min] | CLint scaled at 5 μM [2] [mL/min/kg] | half-life at 5 μM [3] [min] | CLint scaled at 5 μM [3] [mL/min/kg] | clearance (CL) ([1]; dose 0.5 mg/kg) [L/h/kg] | bioavailability ([1]; iv dose 0.5 mg/kg) [%] | AUC(0-t) ([1]; dose 0.5 mg/kg) [ng·h/mL] | half-life ([1]; dose 0.5 mg/kg) [min] | Vd ([1]; dose 0.5 mg/kg) [L/kg] | Structure (SMILES)
1 | 2.80 | 23.1 | 362 | 45.6 | 2.18 | 20 |  |  |  |  |  |  |  |  |  | CC[C@H](Nc1ncnc(N)c1-c1ccon1)c1nc2cccc(Cl)c2c(=O)n1C1CC1 [Ex. 14, (S)-2-(1-((6-amino-5-(isoxazol-3-yl)pyrimidin-4-yl)amino)propyl)-5-chloro-3-cyclopropylquinazolin-4(3H)-one]
2 | 7.62 | 5.49 | 132 | 51.6 | 6.98 | > 3000 | 52.4 | 47.4 | 19.7 | 126 |  |  |  |  |  | CC[C@@H](Nc1ncnc(N)c1-c1nc(C)no1)c1nc2cccc(Cl)c2c(=O)n1C1CC1 [Ex. 19, (R)-2-(1-((6-amino-5-(3-methyl-1,2,4-oxadiazol-5-yl)pyrimidin-4-yl)amino)propyl)-5-chloro-3-cyclopropylquinazolin-4(3H)-one]
3 | 5.85 |  | 169 | 60 | 7.07 | 44 | 6.07 | 286 | 3.29 | 755 |  |  |  |  |  | CCc1nc(-c2c(N)ncnc2N[C@@H](C)c2nc3cccc(Cl)c3c(=O)n2C2CC2)no1 [Ex. 61, (S)-2-(1-((6-amino-5-(5-ethyl-1,2,4-oxadiazol-3-yl)pyrimidin-4-yl)amino)ethyl)-5-chloro-3-cyclopropylquinazolin-4(3H)-one]
4 | 4.48 | 60.9 | 217 | 104 | 8.12 | 9 | 20 | 87 | 20.4 | 122 |  |  |  |  |  | CCc1noc(-c2c(N)ncnc2N[C@@H](CC)c2nc3cccc(Cl)c3c(=O)n2C2CC2)n1 [Ex. 56, (S)-2-(1-((6-amino-5-(3-ethyl-1,2,4-oxadiazol-5-yl)pyrimidin-4-yl)amino)-propyl)-5-chloro-3-cyclopropylquinazolin-4(3H)-one]
5 | 4.54 | 62.3 | 223 | 48.6 | 3.77 | 298 | 150 | 16.6 | 49.9 | 49.8 |  |  |  |  |  | CC[C@H](Nc1ncnc(N)c1-c1nnc(C)o1)c1nc2cccc(F)c2c(=O)n1C1CC1 [Ex. 25, (S)-2-(1-((6-amino-5-(5-methyl-1,3,4-oxadiazol-2-yl)pyrimidin-4-yl)amino)-propyl)-3-cyclopropyl-5-fluoroquinazolin-4(3H)-one]
6 | 4.28 | 36.6 | 236 | 39.3 | 3.05 | 12 | 16 | 109 | 8.57 | 290 |  |  |  |  |  | CC[C@H](Nc1ncnc(N)c1-c1nnc(C)o1)c1nc2cccc(C)c2c(=O)n1-c1ccccc1 [Ex. 38, (S)-2-(1-((6-amino-5-(5-methyl-1,3,4-oxadiazol-2-yl)pyrimidin-4-yl)amino)-propyl)-5-methyl-3-phenylquinazolin-4(3H)-one]
7 | 9.56 | 29.8 | 104 | 51 | 9.46 | 26 | 15.3 | 163 | 7.95 | 312 |  |  |  |  |  | CC[C@H](Nc1ncnc(N)c1-c1nc(C)no1)c1nc2ccccc2c(=O)n1-c1ccccc1F [Ex. 22, (S)-2-(1-((6-amino-5-(3-methyl-1,2,4-oxadiazol-5-yl)pyrimidin-4-yl)amino)propyl)-3-(2-fluorophenyl)quinazolin-4(3H)-one]
8 | 4.31 | 27.7 | 238 | 81 | 6.11 | 37 | 50.4 | 34.5 | 46.2 | 53.7 |  |  |  |  |  | CC[C@H](Nc1ncnc(N)c1-c1nc(C)no1)c1nc2cccc(Cl)c2c(=O)n1[C@@H]1C[C@@H]1F [Ex. 62, 2-((S)-1-((6-amino-5-(3-methyl-1,2,4-oxadiazol-5-yl)pyrimidin-4-yl)amino)propyl)-5-chloro-3-((1R,2S)-2-fluorocyclopropyl)quinazolin-4(3H)-one]
9 | 3.89 | 16.2 | 260 | 42 | 3.42 | 18 | 7.56 | 328 | 7.27 | 342 |  |  |  |  |  | CC[C@H](Nc1ncnc(N)c1-c1nnc(C)o1)c1nc2cccc(C)c2c(=O)n1-c1ccccc1C [Ex. 31, (S)-2-(1-((6-amino-5-(5-methyl-1,3,4-oxadiazol-2-yl)pyrimidin-4-yl)amino)propyl)-5-methyl-3-(o-tolyl)quinazolin-4(3H)-one]
10 | 2.29 | 97.3 | 429 | 97.2 | 3.88 | 239 | 28 | 62.1 | 34.1 | 72.9 |  |  |  |  |  | CC[C@H](Nc1ncnc(N)c1-c1ncn(C)n1)c1nc2cccc(Cl)c2c(=O)n1C1CC1 [Ex. 53, (S)-2-(1-((6-amino-5-(1-methyl-1H-1,2,4-triazol-3-yl)pyrimidin-4-yl)amino)-propyl)-5-chloro-3-cyclopropylquinazolin-4(3H)-one]
11 |  |  |  |  |  |  | 37.9 | 45.9 | 8.87 | 280 | 3.18 | 41.8 | 157 | 67.8 | 3.46 | CC[C@H](Nc1ncnc(N)c1-c1nnc(C)o1)c1nc2cccc(Cl)c2c(=O)n1-c1ccccc1C [Ex. 35, (S)-2-(1-((6-amino-5-(5-methyl-1,3,4-oxadiazol-2-yl)pyrimidin-4-yl)-amino)propyl)-5-chloro-3-(o-tolyl)quinazolin-4(3H)-one]
12 | 366 | 23.6 | 271 | 56.4 | 3.16 |  | 27.1 | 91.6 | 7.63 | 325 |  |  |  |  |  | CC[C@H](Nc1ncnc(N)c1-c1ccon1)c1nc2cccc(C)c2c(=O)n1C1CC1 [Ex. 47, (S)-2-(1-((6-amino-5-(isoxazol-3-yl)pyrimidin-4-yl)amino)propyl)-3-cyclopropyl-5-methylquinazolin-4(3H)-one]
13 | 4.23 | 22.4 | 238 | 51.6 | 3.84 |  | 17.8 | 140 | 8.46 | 294 |  |  |  |  |  | CC[C@H](Nc1ncnc(N)c1-c1ncn(C)n1)c1nc2cccc(C)c2c(=O)n1-c1ccccc1C [Ex. 30, (S)-2-(1-((6-amino-5-(1-methyl-1H-1,2,4-triazol-3-yl)pyrimidin-4-yl)amino)-propyl)-5-methyl-3-(o-tolyl)quinazolin-4(3H)-one]
14 | 3.57 | 30.4 | 276 | 91.2 | 11.9 |  | 5.52 | 315 | 5.98 | 416 |  |  |  |  |  | CC[C@H](Nc1ncnc(N)c1C1=N[C@@H](C)CO1)c1nc2cccc(Cl)c2c(=O)n1C1CC1 [Ex. 5, 2-((S)-1-((6-amino-5-((S)-4-methyl-4,5-dihydrooxazol-2-yl)pyrimidin-4-yl)amino)propyl)-5-chloro-3-cyclopropylquinazolin-4(3H)-one]
15 | 4.35 | 11.4 | 232 | 68.4 | 6.92 |  | 44.7 | 38.9 | 6.55 | 379 |  |  |  |  |  | CC[C@H](Nc1ncnc(N)c1-c1noc(C)n1)c1nc2cccc(Cl)c2c(=O)n1-c1ccccc1 [Ex. 13, (S)-2-(1-((6-amino-5-(5-methyl-1,2,4-oxadiazol-3-yl)pyrimidin-4-yl)amino)-propyl)-5-chloro-3-phenylquinazolin-4(3H)-one]
16 | 4.12 | 18.3 | 249 | 45.6 | 4.3 |  | 22.9 | 108 | 19.7 | 126 |  |  |  |  |  | CC[C@H](Nc1ncnc(N)c1-c1noc(C)n1)c1nc2cccc(F)c2c(=O)n1C1CC1 [Ex. 16, (S)-2-(1-((6-amino-5-(5-methyl-1,2,4-oxadiazol-3-yl)pyrimidin-4-yl)amino)-propyl)-3-cyclopropyl-5-fluoroquinazolin-4(3H)-one]
17 | 4.04 | 32.7 | 254 | 40.8 | 2.42 |  | 136 | 12.8 | 27 | 91.8 |  |  |  |  |  | CC[C@H](Nc1ncnc(N)c1-c1ccon1)c1nc2cccc(F)c2c(=O)n1C1CC1 [Ex. 48, (S)-2-(1-((6-amino-5-(isoxazol-3-yl)pyrimidin-4-yl)amino)propyl)-3-cyclopropyl-5-fluoroquinazolin-4(3H)-one]
